Data published in the supplement of paper PMC8671470.
Structures can show the parent of a compound that is named as a salt.

What was measured:
Settings in all cases: 72 h
HL-60 [1] = assay: cell viability (% survival relative to DMSO control); higher = less cytotoxic
Procedure, shortened: (§1)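 HL-60 cells in RPMI 1640 with 10% FBS were rescreened against the full library on 384-well plates at five tenfold concentrations, 1–10,000 nM, in duplicate. Each screen was run with DMSO or 100 nM of one of three metabolic inhibitors, for 72 h at 37 °C, 5% CO2. Viability was read by CellTiter-Glo and normalised to DMSO and 10 μM proteasome-inhibitor wells. Where given, area under the curve came from four-parameter log-logistic fits (drc, PharmacoGx).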

HL-60 [2] = assay: area under dose-response curve (viability, 1 nM-10 uM) (fraction (0-1)); higher = more sensitive
Procedure, shortened: as §1

LAMA-84 [3] = tested on: LAMA-84
Procedure, shortened: (§2)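 Fifteen myeloid leukaemia lines were incubated for 72 h at 37 °C with 5% CO2 across five tenfold doses from 1 to 10,000 nM, in duplicate. ATP luminescence was normalised to vehicle and to a positive control at 10 µM and fitted with a four-parameter log-logistic model. The IC50 came from these dose–response fits.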

HL-60 [4] = tested on: HL-60
Procedure, shortened: as §2

ML-2 [5] = tested on: ML-2
Procedure, shortened: as §2

BV-173 [6] = tested on: BV-173
Procedure, shortened: as §2

HEL [7] = tested on: HEL
Procedure, shortened: as §2

KCL-22 [8] = tested on: KCL-22
Procedure, shortened: as §2

MV4-11 [9] = tested on: MV4-11
Procedure, shortened: as §2

SHI-1 [10] = tested on: SHI-1
Procedure, shortened: as §2

KU-812 [11] = tested on: KU-812
Procedure, shortened: as §2

MOLM-13 [12] = tested on: MOLM-13
Procedure, shortened: as §2

THP-1 [13] = tested on: THP-1
Procedure, shortened: as §2

Mono-Mac-6 [14] = tested on: Mono-Mac-6
Procedure, shortened: as §2

KG-1 [15] = tested on: KG-1
Procedure, shortened: as §2

K-562 [16] = tested on: K-562
Procedure, shortened: as §2

NOMO-1 [17] = tested on: NOMO-1
Procedure, shortened: as §2

[18] = tested on: myeloid leukemia patient primary cells Pat.7; assay: area under dose-response curve (viability, 1 nM-10 uM) (fraction (0-1)); higher = more sensitive
Method: (§3)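 AUC (0–1, higher = more sensitive) of the 5-point dose–response (1 nM–10 µM, 72 h, CellTiter-Glo) in primary AML/CML patient mononuclear cells. 0.030103 is the floor for inactive compounds.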

[19] = tested on: myeloid leukemia patient primary cells Pat.5; assay: as above
Method: as §3

[20] = tested on: myeloid leukemia patient primary cells Pat.3; assay: as above
Method: as §3

[21] = tested on: myeloid leukemia patient primary cells Pat.9; assay: as above
Method: as §3

[22] = tested on: myeloid leukemia patient primary cells Pat.14; assay: as above
Method: as §3

[23] = tested on: myeloid leukemia patient primary cells Pat.8; assay: as above
Method: as §3

[24] = tested on: myeloid leukemia patient primary cells Pat.15; assay: as above
Method: as §3

[25] = tested on: myeloid leukemia patient primary cells Pat.11; assay: as above
Method: as §3

[26] = tested on: myeloid leukemia patient primary cells Pat.2; assay: as above
Method: as §3

[27] = tested on: myeloid leukemia patient primary cells Pat.1; assay: as above
Method: as §3

[28] = tested on: myeloid leukemia patient primary cells Pat.10; assay: as above
Method: as §3

[29] = tested on: myeloid leukemia patient primary cells Pat.4; assay: as above
Method: as §3

[30] = tested on: myeloid leukemia patient primary cells Pat.13; assay: as above
Method: as §3

[31] = tested on: myeloid leukemia patient primary cells Pat.12; assay: as above
Method: as §3

[32] = tested on: myeloid leukemia patient primary cells Pat.6; assay: as above
Method: as §3

LAMA-84 [33] = assay: cell viability (% survival relative to DMSO control, bortezomib = 0%); higher = less cytotoxic
Procedure, shortened: (§4)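 Fifteen myeloid leukaemia cell lines (10 AML, 5 CML) were seeded at a density titrated to the linear growth range into 384-well plates pre-printed with compounds at 1, 10, 100, 1000 or 10000 nM in duplicate. Plates were incubated for 72 h at 37 °C with 5% CO2. Viability was then read by CellTiter-Glo luminescence. Each value is percent survival averaged over the duplicates, with vehicle set to 100% and a 10 µM positive control to 0%.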

HL-60 [34] = assay: as above
Procedure, shortened: as §4

ML-2 [35] = assay: as above
Procedure, shortened: as §4

BV-173 [36] = assay: as above
Procedure, shortened: as §4

HEL [37] = assay: as above
Procedure, shortened: as §4

KCL-22 [38] = assay: as above
Procedure, shortened: as §4

MV4-11 [39] = assay: as above
Procedure, shortened: as §4

SHI-1 [40] = assay: as above
Procedure, shortened: as §4

KU-812 [41] = assay: as above
Procedure, shortened: as §4

MOLM-13 [42] = assay: as above
Procedure, shortened: as §4

THP-1 [43] = assay: as above
Procedure, shortened: as §4

Mono-Mac-6 [44] = assay: as above
Procedure, shortened: as §4

KG-1 [45] = assay: as above
Procedure, shortened: as §4

K-562 [46] = assay: as above
Procedure, shortened: as §4

NOMO-1 [47] = assay: as above
Procedure, shortened: as §4

CCOC(=O)c1ccc(-c2ccc(OC(=O)N(C)Cc3cccc(-c4ccncc4)c3)cc2)cc1 [WWL 113]
cell viability [%], HL-60 [1]
Settings	0.001 µM	0.01 µM	0.1 µM	1 µM	10 µM
co-treatment: AZD3965 100 nM	99.55	98.5	94	97.8	101
co-treatment: DMSO vehicle	106	102	98.3	102.3	102
co-treatment: GSK2194069 100 nM	99.6	96	86.5	97.09	101
co-treatment: pictilisib 100 nM	101.2	103	85.6	96.7	101

CC/C=C\C[C@H]1C(=O)CC[C@@H]1CC(=O)OC [methyl jasmonate]
HL-60 [2]
Settings	area under dose-response curve
co-treatment: AZD3965 100 nM	< 0.0301
co-treatment: DMSO vehicle	< 0.0301
co-treatment: GSK2194069 100 nM	< 0.0301
co-treatment: pictilisib 100 nM	< 0.0301

cell viability [%], HL-60 [1]
Settings	0.001 µM	0.01 µM	0.1 µM	1 µM	10 µM
co-treatment: AZD3965 100 nM	98.2	106	100.7	105	106
co-treatment: DMSO vehicle	101	99.7	97.6	102.5	102
co-treatment: GSK2194069 100 nM	95.5	99.5	98.1	93.3	105
co-treatment: pictilisib 100 nM	96.58	104	101	109	99.6

CS(=O)(=O)N1CCN(Cc2cc3nc(-c4cccc5[nH]ncc45)nc(N4CCOCC4)c3s2)CC1 [Pictilisib]
Settings	IC50 (cell viability) [µM]	area under dose-response curve
BV-173 [6]	> 10	–
HEL [7]	> 10	–
HL-60 [4]	0.0159	–
K-562 [16]	1.27	–
KCL-22 [8]	> 10	–
KG-1 [15]	> 10	–
KU-812 [11]	> 10	–
LAMA-84 [3]	> 10	–
ML-2 [5]	9.06	–
MOLM-13 [12]	0.969	–
MV4-11 [9]	1.19	–
Mono-Mac-6 [14]	> 10	–
NOMO-1 [17]	> 10	–
SHI-1 [10]	0.987	–
THP-1 [13]	> 10	–
[18]	–	0.507
[19]	–	0.384
[20]	–	0.519
[21]	–	0.257
[22]	–	0.529
[23]	–	0.536
[24]	–	0.439
[25]	–	0.0959
[26]	–	< 0.0301
[27]	–	0.538
[28]	–	0.456
[29]	–	0.294
[30]	–	< 0.0301
[31]	–	< 0.0301
[32]	–	0.0368

N#Cc1ccnc(N2C(=O)CC[C@H]2C(=O)N(c2cncc(F)c2)[C@H](C(=O)NC2CC(F)(F)C2)c2ccccc2Cl)c1 [AG-120]
HL-60 [2]
Settings	area under dose-response curve
co-treatment: AZD3965 100 nM	< 0.0301
co-treatment: DMSO vehicle	< 0.0301
co-treatment: GSK2194069 100 nM	< 0.0301
co-treatment: pictilisib 100 nM	< 0.0301

cell viability [%], HL-60 [1]
Settings	0.001 µM	0.01 µM	0.1 µM	1 µM	10 µM
co-treatment: AZD3965 100 nM	102	86.8	113	91	102
co-treatment: DMSO vehicle	104	98.74	99.6	97.6	99.14
co-treatment: GSK2194069 100 nM	93.1	101	99.8	92.3	88.3
co-treatment: pictilisib 100 nM	92.9	98.2	104	77.1	98.6

CC/C=C\C[C@H]1C(=O)CC[C@@H]1CC(=O)OC [Methyl jasmonate]
Settings	IC50 (cell viability) [µM]
BV-173 [6]	> 10
HEL [7]	> 10
HL-60 [4]	> 10
K-562 [16]	> 10
KCL-22 [8]	> 10
KG-1 [15]	> 10
KU-812 [11]	> 10
LAMA-84 [3]	> 10
ML-2 [5]	> 10
MOLM-13 [12]	> 10
MV4-11 [9]	> 10
Mono-Mac-6 [14]	> 10
NOMO-1 [17]	> 10
SHI-1 [10]	> 10
THP-1 [13]	> 10

cell viability [%]
Settings	1 nM	10 nM	100 nM	1000 nM	10000 nM
BV-173 [36]	108	111	103	93.2	103
HEL [37]	97.3	99.1	114	99.5	111
HL-60 [34]	92.7	99.1	105	96.5	111
K-562 [46]	90.2	95.9	104	102	91.5
KCL-22 [38]	109	99.9	96.9	91.9	103
KG-1 [45]	115	95.7	93.9	101	105
KU-812 [41]	99.3	108	110	99.1	104
LAMA-84 [33]	95.6	100	105	98.7	110
ML-2 [35]	115	110	101	99.9	108
MOLM-13 [42]	108	113	116	94.3	96.6
MV4-11 [39]	106	104	108	105	101
Mono-Mac-6 [44]	102	101	111	96.2	107
NOMO-1 [47]	104	110	101	93	100
SHI-1 [40]	98.8	94.2	90.8	99.3	98
THP-1 [43]	103	111	101	95.3	106

Cc1cc(CS(=O)(=O)c2ccccc2)cc(OCc2ccc(CN3CCC[C@@H]3CO)cc2)c1 [PF 543 hydrochloride]
HL-60 [2]
Settings	area under dose-response curve
co-treatment: AZD3965 100 nM	< 0.0301
co-treatment: DMSO vehicle	< 0.0301
co-treatment: GSK2194069 100 nM	< 0.0301
co-treatment: pictilisib 100 nM	< 0.0301

cell viability [%], HL-60 [1]
Settings	0.001 µM	0.01 µM	0.1 µM	1 µM	10 µM
co-treatment: AZD3965 100 nM	95.8	101	100.5	95.55	96.1
co-treatment: DMSO vehicle	99.4	100	103	99.8	103
co-treatment: GSK2194069 100 nM	81.7	94.56	96.8	95.1	92.2
co-treatment: pictilisib 100 nM	79.4	97.3	93.9	99.7	96.7

CCC(C)(C)C(=O)O[C@H]1C[C@@H](C)C=C2C=C[C@H](C)[C@H](CC[C@@H]3C[C@@H](O)CC(=O)O3)[C@H]21 [Simvastatin]
Settings	IC50 (cell viability) [µM]
BV-173 [6]	> 10
HEL [7]	> 10
HL-60 [4]	> 10
K-562 [16]	> 10
KCL-22 [8]	> 10
KG-1 [15]	> 10
KU-812 [11]	> 10
LAMA-84 [3]	> 10
ML-2 [5]	> 10
MOLM-13 [12]	> 10
MV4-11 [9]	> 10
Mono-Mac-6 [14]	> 10
NOMO-1 [17]	> 10
SHI-1 [10]	> 10
THP-1 [13]	> 10

O=C(Nc1ccccc1)c1cc([N+](=O)[O-])ccc1Cl [GW9662]
Settings	IC50 (cell viability) [µM]
BV-173 [6]	8.53
HL-60 [4]	> 10
K-562 [16]	> 10
KU-812 [11]	> 10
LAMA-84 [3]	> 10
MOLM-13 [12]	> 10
MV4-11 [9]	8.81
Mono-Mac-6 [14]	> 10
NOMO-1 [17]	> 10
SHI-1 [10]	> 10
THP-1 [13]	> 10

cell viability [%]
Settings	1 nM	10 nM	100 nM	1000 nM	10000 nM
BV-173 [36]	103	95.7	113	91.8	56.6
HL-60 [34]	90.2	98.8	98.2	106	72.6
K-562 [46]	112	102	105	108	65.4
KU-812 [41]	97.9	102	113	87.3	71.7
LAMA-84 [33]	98.7	95.9	110	101	90.5
MOLM-13 [42]	109	97	95.5	122	80.8
MV4-11 [39]	102	93.3	108	115	42.9
Mono-Mac-6 [44]	101	107	110	112	115
NOMO-1 [47]	95.6	96.4	97.3	102	91.8
SHI-1 [40]	111	104	103	107	93.8
THP-1 [43]	103	101	102	93.7	77.2
